The results in this text go back to US8138188B2, “Melanocortin type 4 receptor agonist piperidinoylpyrrolidines” (Pfizer Inc., priority 2006, dated 2012).

One data set addresses T1, CYP3A4 (Homo sapiens, UniProt P08684).
T1 construct: utilizes human liver microsomes together with isoform-specific clinical drug probes; from tissue; host or cells: human liver microsomes
Briefly: High density drug-drug interactions (DDI) 3 μM cocktail screen in human liver microsomes. The data set is classed as in vitro ADME. The conditions noted are these: 3 uM test compound, pooled human liver microsomes, probe midazolam 2 μM; read-out: % Inhibition of 3A4 metabolism at 3 uM. The method, then:
High Density Drug-Drug Interactions (DDI) 3 μM Cocktail Screen
A drug interaction is a situation in which a substance affects the activity of another drug, i.e. the effects are increased or decreased, or together they produce a new effect that neither produces on its own. Drug interactions may be the result of various processes but a relatively common one is where one drug affects the pharmacokinetics of another by inhibiting the cytochrome P450 that metabolises it. Because of the importance of these phenomena, assessment of the DDI potential for new chemical entities (NCEs) is considered important early on in the drug discovery process.
The DDI cocktail screen in human liver microsomes (HLM) is run in a fully automated fashion and the aim of the screen is to provide a single-point assessment of the DDI potential of new chemical entity (NCE; tested at 3 μM) against the 4 primary cytochrome P450 enzymes, 1A2, 2D6, 2C9 and 3A4.
The substrate cocktail approach for P450 DDI utilizes human liver microsomes together with isoform-specific clinical drug probes and permits the simultaneous measurement of the inhibition of P450 1A2, 2C9, 2D6 & 3A4 activities in a single incubation. This is run in high throughput with simultaneous detection of metabolites by LC-MS/MS. This method has been thoroughly tested and evaluated using standard compounds.
Appearance of the metabolite of each substrate is measured over time in the presence and absence of the NCE (test compound/inhibitor) at a concentration of 3 μM. The compounds are assessed for their inhibitory potential as a percentage value and interpreted using the following scheme.

The target of another data set is T2, human MC3 receptor (Homo sapiens, UniProt P41968).
T2 construct: stably transfected with full length cDNA encoding human MC1 or MC3 receptors; expressed in transfected cells; host or cells: Chinese hamster ovary cell line (MC3; 'respectively')
T2 sequence (P41968 whole entry): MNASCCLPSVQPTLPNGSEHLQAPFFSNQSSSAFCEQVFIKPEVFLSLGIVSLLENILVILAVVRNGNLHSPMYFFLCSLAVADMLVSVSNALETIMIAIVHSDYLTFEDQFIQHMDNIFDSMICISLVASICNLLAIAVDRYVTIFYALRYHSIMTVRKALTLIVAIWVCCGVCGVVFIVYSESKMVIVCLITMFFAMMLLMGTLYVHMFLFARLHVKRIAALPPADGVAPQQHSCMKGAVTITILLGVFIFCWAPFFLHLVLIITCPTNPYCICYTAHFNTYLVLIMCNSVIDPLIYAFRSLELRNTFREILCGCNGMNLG
Briefly: In vitro agonist potency (EC50) against melanocortin receptor type 3, cAMP in recombinant cell line. The format is cell-based. The conditions noted are these: cell line stably transfected with human MC3, 1 hour at 37° C. As to the method: Measurement of In Vitro Agonist Potency (EC50) of Compounds Against Melanocortin Receptors Type 1 and 3 (MC1 and MC3).
Activation of melanocortin (MC) receptors by agonists results in activation of intracellular adenylate cyclase enzymes that synthesise the second messenger signalling molecule, adenosine 3′,5′-cyclic monophosphate (cAMP). Changes in cAMP levels following treatment of recombinant MC1 and MC3 cell lines with test compound were measured and an MC1 and MC3 potency estimate (EC50) calculated as follows: […]
Human embryonic kidney (HEK) or Chinese hamster ovary cell lines stably transfected with full length cDNA encoding human MC1 or MC3 receptors, respectively, were established using standard molecular biology methods. Test compounds were dissolved in dimethyl sulfoxide (DMSO) at 4 mM. 11 point half log unit increment dilution series of test compound, typically starting at 50 uM were prepared in a buffer comprised of phosphate buffered saline (PBS), 2.5% DMSO and 0.05% pluronic F-127 surfactant. Freshly cultured cells at 80-90% confluence were harvested and re-suspended in Dulbecco's Modified Eagle's Medium (DMEM). Cells (10,000 for MC3, 20,000 for MC1) were added to the test compound dilution series in a 384 well assay plate and incubated for 1 hour at 37° C. The relative cAMP concentration in each well was then measured using a β-galactosidase enzyme fragment complementation method purchased in kit form as the Discoverx cAMP II kit from GE Healthcare/Amersham Biosciences UK. In the case of MC1,3-Isobutyl-1-methylxanthine (IBMX) at a concentration of 750 μM was included in DMEM as the cells were re-suspended for assay. […] Sigmoidal curves were fitted to plots of log10 inhibitor concentration vs percent effect using a custom made software application called SIGHTS and EC50 estimates determined by the software as the concentration of test compound giving an effect half way between the bottom and top assymptopes of the sigmoidal dose response curve. Each experiment included an EC50 determination for alpha melanocyte stimulating hormone, which was used as a standard to track assay consistency and allow fair comparison between EC50 estimates obtained in different experiments.

Data set [1] is described as follows: In vitro metabolism rate determination, rat liver microsome (RLM) assay. The data set is classed as in vitro ADME. The conditions noted are these: rat liver microsomes, substrate 1 μM; read-out: RLM (intrinsic clearance). From the text:
(§1) In vitro Metabolism Rate Determination (Human Liver Microsome (HLM); Rat Liver Microsome (RLM) Assay)
(§2) Many drugs are metabolised by the cytochrome P450 mono-oxygenase system. This enzyme is found in high concentrations in the liver and is bound to the endoplasmic reticulum of the hepatocyte. The enzyme system can be obtained in semi-purified state by the preparation of the hepatic microsomal fractions. Determining a compound's in vitro half-life in such a system provides a useful indicator of metabolic stability.
(§3) Methodology For In Vitro Rate Determination Using Hepatic & Supermix Microsomes
(§4) The method outlined below is for a total incubation volume of 1.5 ml.
(§5) 1. The following mixture is prepared in a test tube:
(§6) 2. Defrost microsomes at room temperature and add sufficient microsomes to give a final concentration of 0.5 nmol cytochrome P450/ml of incubation e.g. for a 1.5 ml incubation, the volume of microsomes to be added is:
(§7) [formula] 3. Add sufficient MilliQ water to give a total incubation volume of 1.425 ml. 4. Remove 237.5 μl of incubation mix and place in test tube for PNA positive control. Add 2.5 μl of PNA solution, whirlimix, and put tube into a rack in the thermostatically controlled shaking water bath 5. Remove 100 μl for no substrate control and dispense in test tube. Place test tube in a rack in the thermostatically controlled shaking water bath. 6. Add substrate to the incubation. The substrate should be at an initial concentration of 1 μM. The volume of substrate required in the remaining 1.162.5 ml incubation is calculated as follows:
(§8) [formula] • N.B. The volume of organic solvent added should not exceed 0.1% of the total incubation volume. 7. Remove 100 μl of incubation mix into test tube for no cofactor control. Whirlimix and put into a rack in the thermostatically controlled shaking water bath. 8. Pre-incubate the tube containing the incubation mix, also positive control and no cofactor tubes in the thermostatically controlled shaking water bath set at 37° C. for approx 5 min. 9. Add NADP to initiate reaction (75 μl to each 1.162.5 ml incubation mix, 12.5 μl to positive control tube and 5 μl to no substrate tube) and take first time point immediately. The PNA positive control, no cofactor control and no substrate tubes are incubated for the total incubation time. 10. Remove 100 μl aliquots up to 9 different sampling points from 0 to 60 min (usually 0, 3, 5, 10, 15, 20, 30, 45 & 60 min) and terminate reaction. Longer incubation times can be used, but, after 120 min the microsomes deteriorate. The reaction may be terminated by addition of organic solvent, acid or base. At the end of the incubation process the no cofactor and no substrate controls in a similar manner i.e. terminate with the same reagent. 11. PNA Positive Control Procedure: • After the final sample has been taken, remove the positive control and add 1 ml 20% TCA to this tube. Also prepare a tube containing 250 μl of a PNP standard at 50 μM, and add 1 ml 20% TCA. Whirlimix both tubes and leave for approx 5 min to allow the protein to precipitate. • Centrifuge both tubes for approx 5 min in an instrument set at 3500 rpm. Remove 1 ml of supernatant and place into clean test tubes, discard the remainder. • Add 1 ml 10M NaOH to the supernatant, whirlimix, and leave to stand for approx min. Blank spectrophotometer with distilled water at 400 nm then measure absorbance of the PNP standard against distilled water. The microsomal 4-nitroanisole O-demethylase activity is calculated as follows: Calculation of Results
(§9) [formula] • The activity value from the incubation MUST be equal to or greater than 85% of the mean value of the batch used for the incubation to be valid. If this criteria is not met, then the incubation must be repeated. 11. Analyse samples (including no cofactor and no substrate control) by a specific assay for the substrate to determine the disappearance kinetics. Analysis Of Data […]
(In general: Liver microsomes are vesicles of endoplasmic reticulum, rich in cytochrome P450 enzymes.)

Data set [2] in a line: In vitro metabolism rate determination, human liver microsome (HLM) assay. The data set is classed as in vitro ADME. The conditions noted are these: human liver microsomes, substrate 1 μM; read-out: HLM (intrinsic clearance).
Description: as §1, §2, §3, §4, §5, §6, §7, §8, §9

The next data set has as its target MC4 receptor (Homo sapiens, UniProt P32245). Put plainly: MC4 functional agonist potency (EC50), assay protocol E of US2005/0176772 / WO 2005/077935. The format is cell-based. The conditions noted are these: functional potency at the MC4 receptor. As to the method: The compounds of formula (I) of the present invention have utility as MCR4 agonists in the treatment of various disease states.
MC5 and MC4 EC50 activity was determined as described by assay protocols D and E, respectively, in US2005/0176772 (pages 28-30).

MC4 receptor, sequence (P32245 whole entry): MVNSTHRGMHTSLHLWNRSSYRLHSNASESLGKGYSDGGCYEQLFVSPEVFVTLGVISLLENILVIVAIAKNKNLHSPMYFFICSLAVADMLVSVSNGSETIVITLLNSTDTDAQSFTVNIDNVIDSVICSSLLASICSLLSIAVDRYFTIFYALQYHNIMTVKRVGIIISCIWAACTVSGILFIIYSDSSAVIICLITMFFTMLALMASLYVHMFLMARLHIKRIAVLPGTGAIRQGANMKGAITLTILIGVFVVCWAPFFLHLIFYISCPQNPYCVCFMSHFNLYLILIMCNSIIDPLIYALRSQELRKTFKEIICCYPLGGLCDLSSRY
T1 sequence (P08684 whole entry, canonical isoform): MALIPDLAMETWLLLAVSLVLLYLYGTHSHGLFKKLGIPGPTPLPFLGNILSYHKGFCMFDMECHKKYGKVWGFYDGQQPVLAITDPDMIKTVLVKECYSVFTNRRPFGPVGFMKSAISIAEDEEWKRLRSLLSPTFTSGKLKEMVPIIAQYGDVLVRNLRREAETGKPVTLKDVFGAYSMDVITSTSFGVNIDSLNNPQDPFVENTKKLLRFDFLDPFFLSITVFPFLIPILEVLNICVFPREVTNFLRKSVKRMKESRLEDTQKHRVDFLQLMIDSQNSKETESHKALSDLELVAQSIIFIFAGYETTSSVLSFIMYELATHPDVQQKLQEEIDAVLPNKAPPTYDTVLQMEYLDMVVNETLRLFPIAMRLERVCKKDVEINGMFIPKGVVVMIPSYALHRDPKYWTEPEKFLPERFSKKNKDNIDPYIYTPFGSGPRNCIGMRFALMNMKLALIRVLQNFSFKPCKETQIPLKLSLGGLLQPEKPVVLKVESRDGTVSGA

A word on the inhibition: it is the relative decrease from the control value, in per cent. The EC50 is the concentration at which the effect is half-maximal. Regarding `C[C@@H]1CN(C(=O)[C@@H]2CN(c3ccc(Cl)nn3)C[C@H]2c2ccc(Cl)cn2)C[C@H](C)[C@@]1(O)c1ccc(F)cc1` [Example 3, (3R,4R,5S)-1-{[(3S,4S)-1-(6-Chloropyridazin-3-yl)-4-(5-chloropyridin-2-yl)pyrrolidin-3-yl]carbonyl}-4-(4-fluorophenyl)-3,5-dimethylpiperidin-4-ol], at CYP3A4, the inhibition at 3 μM turned out to be 60%. Besides, the EC50 on human MC3 receptor stood at 16.4 nM; at MC4 receptor, 11.9 nM. The microsomal CLint at 1 μM in data set [1] was under 19.8 µL/min/mg; in data set [2], under 7 µL/min/mg.
